Patent US9593305B2, “Differentiation of pluripotent stem cells” (Janssen Biotech, Inc., priority 2008, dated 2017)

System: H1 human embryonic stem cells
Assay: MTS assay of cell proliferation during definitive endoderm differentiation (Example 23)
Type: cell-based
Conditions: 100 ng/ml growth factor with 8 ng/ml bFGF, with or without Wnt3a
Experimental: Stock cultures of human embryonic stem cells (H1 human embryonic stem cell line) were maintained in an undifferentiated, pluripotent state on reduced growth factor […]™ (BD Biosciences; Cat #356231)-coated dishes in MEF conditioned medium with passage on average every four days. Passage was performed by exposing cell cultures to a solution of 1 mg/ml dispase (Invitrogen, Cat #: 17105-041) for 5 to 7 minutes at 37° C. followed by rinsing the monolayer with MEF conditioned culture medium and gentle scraping to recover cell clusters. Clusters were centrifuged at low speed to collect a cell pellet and remove residual dispase. Cell clusters were split at a 1:3 or 1:4 ratio for routine maintenance culture or a 1:1 ratio for immediate assay. All human embryonic stem cell lines were maintained at passage numbers less than 50 and routinely evaluated for normal karyotypic phenotype and for absence of mycoplasma contamination. […]
At the conclusion of 24, 48, or 72 hours of culture, one set of assay plates was subjected to a MTS assay (Promega; Cat#G3581), following the manufacturer's instructions. In brief, 20 μl of MTS was added to each well, and assay plates were incubated at 37° C., 5% CO2 for four hours prior to taking OD490 readings. […]

Substance | OD490 (MTS) over the three day assay, control treatments
Activin A: recombinant human activin A (PeproTech), TGF-beta family member | incremental increases in OD490
GDF-8: growth factor GDF-8, also known as myostatin, member of the TGF-β family | decrease in OD490 relative to activin A treatment
